These results are taken from patent US8716475B2, “2-aminopyrimidine modulators of the histamine H4 receptor” (Janssen Pharmaceutica NV, priority 2007, dated 2014).

For the first experiment, the target named is T1, human H4 receptor (Homo sapiens, UniProt Q9H3N8).
T1 construct: expressed in transfected cells
T1 sequence (Q9H3N8 whole entry): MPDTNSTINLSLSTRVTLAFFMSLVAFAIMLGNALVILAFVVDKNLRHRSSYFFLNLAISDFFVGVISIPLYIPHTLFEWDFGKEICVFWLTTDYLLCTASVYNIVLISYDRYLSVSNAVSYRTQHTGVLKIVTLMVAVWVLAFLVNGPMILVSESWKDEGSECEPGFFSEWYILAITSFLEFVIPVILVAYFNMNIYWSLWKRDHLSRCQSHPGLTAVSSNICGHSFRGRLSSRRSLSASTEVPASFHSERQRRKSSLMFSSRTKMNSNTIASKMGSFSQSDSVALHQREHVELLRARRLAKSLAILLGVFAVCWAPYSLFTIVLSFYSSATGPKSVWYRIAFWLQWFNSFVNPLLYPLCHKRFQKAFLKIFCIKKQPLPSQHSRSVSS
As to the kind of experiment: Binding Assay on Recombinant Human Histamine H4 Receptor. To be noted: Table 1; [3H] histamine competition binding, membranes of SK-N-MC cells transfected with human H4 receptor; average of results. The method in brief: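 Radioligand binding used membranes from SK-N-MC cells stably or transiently expressing human H4, prepared in 50 mM Tris/5 mM EDTA. Nonspecific binding was defined with 100 μM histamine. Bound radioactivity was counted after filtration on PEI-treated GF/C filters, and ">" values are the highest concentration tested.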
For `CN1CCN(c2cc(C3CCCCC3)nc(N)n2)CC1` [Example 52, 4-Cyclohexyl-6-(4-methyl-piperazin-1-yl)-pyrimidin-2-ylamine], the Ki was determined as 3 nM.

Turning to `Nc1nc(Cc2ccccc2)cc(N2C[C@H]3CCCN[C@H]3C2)n1` [Example 65, (R,R)-4-Benzyl-6-(octahydro-pyrrolo[3,4-b]pyridin-6-yl)-pyrimidin-2-ylamine], the Ki is 47 nM.

For `Cc1nc(N)nc(N2CCNCC2)c1C` [Example 25, 4,5-Dimethyl-6-piperazin-1-yl-pyrimidin-2-ylamine], the Ki came to 286 nM.

As for `Nc1nc(C2CCOCC2)cc(N2CCNCC2)n1` [Example 58, 4-piperazin-1-yl-6-(tetrahydro-pyran-4-yl)-pyrimidin-2-ylamine], the Ki came to 41 nM.

`Nc1nc(C2CCCC2)cc(N2CC3CCCNC3C2)n1` (stereo not drawn) [Example 7, 4-Cyclopentyl-6-(cis-octahydro-pyrrolo[3,4-b]pyridin-6-yl)-pyrimidin-2-ylamine]: the inhibitory constant (Ki) was found to be 2 nM.

On to `Nc1nc(C2CCC2)cc(N2CC3CCNC3C2)n1` (stereo not drawn) [Example 47, 4-Cyclobutyl-6-(cis-hexahydro-pyrrolo[3,4-b]pyrrol-5-yl)-pyrimidin-2-ylamine], for which the Ki was found to be 11 nM.

Consider `Cc1nc(N)nc(N2CC3CCNC3C2)c1C` (stereo not drawn) [Example 29, 4-(cis-Hexahydro-pyrrolo[3,4-b]pyrrol-5-yl)-5,6-dimethyl-pyrimidin-2-ylamine], for which the Ki was > 10000 nM.

For `CN[C@@H]1CCN(c2cc(C3CCC3)nc(N)n2)C1` [Example 46, (R)-4-Cyclobutyl-6-(3-methylamino-pyrrolidin-1-yl)-pyrimidin-2-ylamine], the Ki stood at 2 nM.

For the molecule `CC(C)c1cc(N2CCC[C@H](N)C2)nc(N)n1` [Example 10, (S)-4-(3-Amino-piperidin-1-yl)-6-isopropyl-pyrimidin-2-ylamine], the Ki came out at 159 nM.

Consider `Cc1nc(N)nc(N2CCN(C)CC2)c1C` [Example 26, 4,5-Dimethyl-6-(4-methyl-piperazin-1-yl)-pyrimidin-2-ylamine], for which the Ki is 177 nM.

Take `CN[C@@H]1CCN(c2cc(C3CCCC3)nc(N)n2)C1` [Example 4, (R)-4-Cyclopentyl-6-(3-methylamino-pyrrolidin-1-yl)-pyrimidin-2-ylamine]: the Ki is 1 nM.

For the molecule `Nc1nc(C2CCC2)cc(N2C[C@H]3CNC[C@H]3C2)n1` [Example 48, 4-Cyclobutyl-6-(cis-hexahydro-pyrrolo[3,4-c]pyrrol-2-yl)-pyrimidin-2-ylamine], the Ki was determined as 328 nM.

Turning to `Nc1nc(C2CCC2)cc(N2CCNCC2)n1` [Example 43, 4-Cyclobutyl-6-piperazin-1-yl-pyrimidin-2-ylamine], the Ki was 2 nM.

On to `CCc1cc(N2C[C@H]3CNC[C@H]3C2)nc(N)n1` [Example 38, 4-Ethyl-6-(cis-hexahydro-pyrrolo[3,4-c]pyrrol-2-yl)-pyrimidin-2-ylamine], for which the Ki amounted to 559 nM.

The same experiment, now with this note: Table 2, data marked with an asterisk (*): obtained by the cell harvester method; [3H] histamine competition binding, SK-N-MC membranes.
In the case of `CCCCc1nc(N)nc(N2CC[C@@H](N)C2)c1OC` [Example 104, (R)-4-(3-Amino-pyrrolidin-1-yl)-6-butyl-5-methoxy-pyrimidin-2-ylamine], the Ki was 96 nM.

In the case of `CCCCc1nc(N)nc(N(C)CCN)c1OC` [Example 109, N^4-(2-Amino-ethyl)-6-butyl-5-methoxy-N^4-methyl-pyrimidine-2,4-diamine], the Ki turned out to be 517 nM.

Staying with this experiment, now noted: Table 2; [3H] histamine competition binding, membranes of SK-N-MC cells transfected with human H4 receptor; average of results.
Regarding `CN[C@H]1CCN(c2nc(N)nc(C3CCCC3)c2OC)C1` [Example 114, (S)-4-Cyclopentyl-5-methoxy-6-(3-methylamino-pyrrolidin-1-yl)-pyrimidin-2-ylamine], the Ki was determined as 71 nM.

For the molecule `CN[C@@H]1CCN(c2cc(C3Cc4ccccc4O3)nc(N)n2)C1` (stereo partly drawn) [Example 169, (R)-4-(2,3-Dihydro-benzofuran-2-yl)-6-(3-methylamino-pyrrolidin-1-yl)-pyrimidin-2-ylamine], the Ki amounted to 396 nM.

As for `CN[C@@H]1CCN(c2cc(COC)nc(N)n2)C1` [Example 221, (R)-4-Methoxymethyl-6-(3-methylamino-pyrrolidin-1-yl)-pyrimidin-2-ylamine], the Ki amounted to 43 nM.

With `Nc1nc2c(c(N3CC[C@@H](N)C3)n1)COCC2` [Example 98, (R)-4-(3-Amino-pyrrolidin-1-yl)-7,8-dihydro-5H-pyrano[4,3-d]pyrimidin-2-ylamine], the Ki was 298 nM.

With `Cc1nc(N)nc(N2CCN(C)CC2)c1F` [Example 199, 5-Fluoro-4-methyl-6-(4-methyl-piperazin-1-yl)-pyrimidin-2-ylamine], the Ki stood at 69 nM.

Turning to `CN[C@@H]1CCN(c2cc(C3(C)CCOCC3)nc(N)n2)C1` [Example 155, (R)-4-(3-Methylamino-pyrrolidin-1-yl)-6-(4-methyl-tetrahydro-pyran-4-yl)-pyrimidin-2-ylamine], the Ki is 82 nM.

In the case of `COCc1cc(N2CCCNCC2)nc(N)n1` [Example 117, 4-[1,4]-Diazepan-1-yl-6-methoxymethyl-pyrimidin-2-ylamine], the Ki was 42 nM.

Consider `COc1c(C2CCCC2)nc(N)nc1N1CC(N)C1` [Example 111, 4-(3-Amino-azetidin-1-yl)-6-cyclopentyl-5-methoxy-pyrimidin-2-ylamine], for which the Ki was found to be 33 nM.

On to `Nc1nc(C2CCCC2)cc(N2CCC3(CCCN3)C2)n1` (single isomer, unassigned) [Example 257, 4-Cyclopentyl-6-(cis-1,7-diaza-spiro[4.4]non-7-yl)-pyrimidin-2-ylamine], for which the Ki was found to be 31 nM.

Consider `CN1C[C@@H]2CN(c3nc(N)nc4c3COCC4)C[C@@H]2C1` [Example 254, 4-(cis-5-Methyl-hexahydro-pyrrolo[3,4-c]pyrrol-2-yl)-7,8-dihydro-5H-pyranol-[4,3-d]pyrimidin-2-ylamine], for which the inhibition constant (Ki) was > 10000 nM.

As for `Nc1nc(C2CCCC2)cc(N2CC3NCCOC3C2)n1` (single isomer, unassigned) [Example 86, 4-Cyclopentyl-6-(trans-hexahydro-pyrrolo[3,4-b][1,4]oxazin-6-yl)-pyrimidin-2-ylamine], the Ki is 56 nM.

For `COc1c(C2CCCC2)nc(N)nc1N1CCCNCC1` [Example 112, 4-Cyclopentyl-6-[1,4]diazepan-1-yl-5-methoxy-pyrimidin-2-ylamine], the Ki was found to be 46 nM.

Regarding `Nc1nc(Cc2cccs2)cc(N2CCNCC2)n1` [Example 215, 4-piperazin-1-yl-6-thiophen-2-ylmethyl-pyrimidin-2-ylamine], the Ki worked out at 6 nM.

Take `Nc1nc(C2CCCC2)cc(N2CC(N)C2)n1` [Example 85, 4-(3-Amino-azetidin-1-yl)-6-cyclopentyl-pyrimidin-2-ylamine]: the Ki stood at 6 nM.

On to `COc1c(C2CCCC2)nc(N)nc1N1CC[C@@H](N)C1` [Example 113, (R)-4-(3-Amino-pyrrolidin-1-yl)-6-cyclopentyl-5-methoxy-pyrimidin-2-ylamine], for which the inhibition constant (Ki) amounted to 136 nM.

Take `Nc1nc(CCC(F)(F)F)cc(N2CC[C@@H](N)C2)n1` [Example 184, (R)-4-(3-Amino-pyrrolidin-1-yl)-6-(3,3,3-trifluoro-propyl)-pyrimidin-2-ylamine]: the Ki came to 13 nM.

Turning to `COCc1cc(N2CCN(C)CC2)nc(N)n1` [Example 223, 4-Methoxymethyl-6-(4-methyl-piperazin-1-yl)-pyrimidin-2-ylamine], the Ki amounted to 15 nM.

Consider `Nc1nc(C2CCOC2)cc(N2CCNCC2)n1` (single isomer, unassigned; (-)) [Example 193, (−)-4-piperazin-1-yl-6-(tetrahydro-furan-3-yl)-pyrimidin-2-ylamine], for which the Ki was found to be 31 nM.

As for `CCCCc1nc(N)nc(N2CC[C@H](N)C2)c1OC` [Example 105, (S)-4-(3-Amino-pyrrolidin-1-yl)-6-butyl-5-methoxy-pyrimidin-2-ylamine], the Ki was 103 nM.

For the molecule `Nc1nc(C2Cc3ccccc3C2)cc(N2CC[C@@H](N)C2)n1` [Example 162, (R)-4-(3-Amino-pyrrolidin-1-yl)-6-indan-2-yl-pyrimidin-2-ylamine], the Ki was found to be 5 nM.

Consider `CCCCc1nc(N)nc(N2CCCNCC2)c1OC` [Example 102, 4-Butyl-6-[1,4]diazepan-1-yl-5-methoxy-pyrimidin-2-ylamine], for which the Ki worked out at 181 nM.

On to `CN[C@H]1CCN(c2cc(C(C)C)nc(N)n2)C1` [Example 125, (S)-4-Isopropyl-6-(3-methylamino-pyrrolidin-1-yl)-pyrimidin-2-ylamine], for which the Ki was found to be 7 nM.

For the molecule `CCCCc1cc(N2CCNCC2)nc(N)n1` [Example 142, 4-Butyl-6-piperazin-1-yl-pyrimidin-2-ylamine], the Ki is 3 nM.

`NCCNc1cc(C2Cc3ccccc3C2)nc(N)n1` [Example 168, N^4-(2-Amino-ethyl)-6-indan-2-yl-pyrimidine-2,4-diamine]: the Ki was 46 nM.

On to `CCCCc1nc(N)nc(N2CCNCC2)c1OC` [Example 101, 4-Butyl-5-methoxy-6-piperazin-1-yl-pyrimidin-2-ylamine], for which the Ki worked out at 30 nM.

With `Nc1nc(Cc2ccsc2)cc(N2CC[C@@H](N)C2)n1` [Example 210, (R)-4-(3-Amino-pyrrolidin-1-yl)-6-thiophen-3-ylmethyl-pyrimidin-2-ylamine], the Ki was 12 nM.

Consider `Nc1nc(C2CCOC2)cc(N2CC3CCCNC3C2)n1` (stereo not drawn) [Example 190, 4-(cis-Octahydro-pyrrolo[3,4-b]pyridin-6-yl)-6-(tetrahydro-furan-3-yl)-pyrimidin-2-ylamine], for which the Ki came to 11 nM.

As to `CN1CCN(c2cc(Cc3ccc(Cl)cc3)nc(N)n2)CC1` [Example 232, 4-(4-Chloro-benzyl)-6-(4-methyl-piperazin-1-yl)-pyrimidin-2-ylamine], the Ki was 8 nM.

Take `CN[C@@H]1CCN(c2nc(N)nc(C3CCCC3)c2OC)C1` [Example 187, (R)-4-Cyclopentyl-5-methoxy-6-(3-methylamino-pyrrolidin-1-yl)-pyrimidin-2-ylamine]: the inhibition constant Ki came out at 10 nM.

The term Ki denotes a dissociation constant, usually derived from enzyme kinetics or from competition with a known ligand.
